# Entries after “also recorded” stand apart in the source; their conditions may differ.
# Key:
# H4 cells = assay: Removal of synthetic Aβ spiked into culture medium of H4 cells; type: cell-based, human; conditions: incubated 6 or 24 hrs, presence vs absence of phosphoramidon
# Description: Human and guinea pig Aβ40 or Aβ42 was measured in plasma by sandwich ELISA as previously described (Suzuki et al., 1994, Science, 264:1336-1340) using the BAN-50/BA-27 or BAN-50/BC-05 antibody systems, respectively (Takeda; Japan). Hamster Aβ40- or Aβ42-derived from CHO cells was measured using the BNT-77/BA-27 or BNT-77/BC-05 antibody systems, respectively. Aβ concentration in samples was determined by comparison to synthetic Aβ40 or Aβ42 standards (Bachem, Switzerland). Data was obtained from triplicate wells. […] Plates were read at 450 nm in a SpectraMax Plus spectrophotometer (Molecular Devices; Sunnyvale, Calif.) and analyzed by SOFTmax® PRO software. Aβ40 or Aβ42 were quantitated by comparison with the values obtained for each synthetic Aβ standard from the same plate. To exclude the possibility that the phosphoramidon-induced effect was due to inhibition of extracellular degradation and/or internalization of Aβ by H4 cells, synthetic Aβ was spiked into the culture medium, incubated for 6 or 24 hrs, and the amount of synthetic Aβ remaining in the medium was determined by sandwich ELISA. […] Intracellular Aβ has not been convincingly detected in H4 cells, presumably due to rapid secretion of the peptide.
# H4 neuroglioma cells = conditions: reported; cited from earlier work
# [1] = test system: ECE-transfected CHO cells; assay: Removal of synthetic Aβ40 spiked into culture medium of ECE-transfected CHO cells; type: cell-based, hamster
# Description: Human and guinea pig Aβ40 or Aβ42 was measured in plasma by sandwich ELISA as previously described (Suzuki et al., 1994, Science, 264:1336-1340) using the BAN-50/BA-27 or BAN-50/BC-05 antibody systems, respectively (Takeda; Japan). Hamster Aβ40- or Aβ42-derived from CHO cells was measured using the BNT-77/BA-27 or BNT-77/BC-05 antibody systems, respectively. Aβ concentration in samples was determined by comparison to synthetic Aβ40 or Aβ42 standards (Bachem, Switzerland). Data was obtained from triplicate wells.
# In particular, the sandwich ELISA used herein was performed as follows: 96-well microtiter plates were coated overnight at 4° C. with 100 μl of a 5 μg/ml dilution of primary antibody in sodium carbonate coating buffer (SCCB; 0.1 M Na2CO3, pH 9.6). […] Plates were read at 450 nm in a SpectraMax Plus spectrophotometer (Molecular Devices; Sunnyvale, Calif.) and analyzed by SOFTmax® PRO software. Aβ40 or Aβ42 were quantitated by comparison with the values obtained for each synthetic Aβ standard from the same plate.
# To determine whether extracellular removal of Aβ accounted, at least in part, for the dramatic decrease in extracellular Aβ concentration in ECE-transfected cell lines, synthetic Aβ40 was spiked into the culture medium in the presence or absence of phosphoramidon and the amount of unhydrolyzed Aβ was determined at 6 or 24 hrs by sandwich ELISA. […]
smiles,measurement,setting,value
CC(C)C[C@H](NP(=O)(O)O[C@@H]1O[C@@H](C)[C@H](O)[C@@H](O)[C@H]1O)C(=O)N[C@@H](Cc1c[nH]c2ccccc12)C(=O)O [phosphoramidon],removal of synthetic Aβ spiked into the culture medium,H4 cells,removed equally; also recorded: not affected
same,extracellular Aβ concentration,H4 neuroglioma cells,significant increase
same,extracellular concentration of synthetic Aβ,"[1]; 6 hr incubation, ECE-transfected and untransfected CHO cells, spiked synthetic Aβ40",not affected
same,ECE-1a-induced increase in Aβ removal,"[1]; 24 hr, ECE-1a-transfected CHO cells treated with phosphoramidon",completely attenuated
